Where two headings read alike, the source gives them in different places. Starred links: 1 amine or outer side, 2 acyl side, 3 side chain; linkers in the order of their positions; H or OH if unused. Non-standard residues stand in square brackets, D forms with d. Residues, ends and D or L forms follow the SMILES beside them. Phe(4-NO2) = N[C@@H](Cc1ccc([N+](=O)[O-])cc1)C(=O)O; Phe(3-F) = N[C@@H](Cc1cccc(F)c1)C(=O)O; Phe(2-F) = N[C@@H](Cc1ccccc1F)C(=O)O; Maleoyl = O=C(/C=C\C(=O)[*:2])[*:1]; Suc = O=C(CCC(=O)[*:2])[*:1]
What was measured:
[1] = target: T1, βTrCP (Homo sapiens, UniProt Q9Y297); experiment: Biotin pull down assay with biotinylated IκB peptide; format: binding; conditions: for Biotin Pulldown Assay 10 μM: 10 μM compound; for Biotin Pulldown Assay 100 μM: 100 μM compound
T1 sequence (Q9Y297 1-605): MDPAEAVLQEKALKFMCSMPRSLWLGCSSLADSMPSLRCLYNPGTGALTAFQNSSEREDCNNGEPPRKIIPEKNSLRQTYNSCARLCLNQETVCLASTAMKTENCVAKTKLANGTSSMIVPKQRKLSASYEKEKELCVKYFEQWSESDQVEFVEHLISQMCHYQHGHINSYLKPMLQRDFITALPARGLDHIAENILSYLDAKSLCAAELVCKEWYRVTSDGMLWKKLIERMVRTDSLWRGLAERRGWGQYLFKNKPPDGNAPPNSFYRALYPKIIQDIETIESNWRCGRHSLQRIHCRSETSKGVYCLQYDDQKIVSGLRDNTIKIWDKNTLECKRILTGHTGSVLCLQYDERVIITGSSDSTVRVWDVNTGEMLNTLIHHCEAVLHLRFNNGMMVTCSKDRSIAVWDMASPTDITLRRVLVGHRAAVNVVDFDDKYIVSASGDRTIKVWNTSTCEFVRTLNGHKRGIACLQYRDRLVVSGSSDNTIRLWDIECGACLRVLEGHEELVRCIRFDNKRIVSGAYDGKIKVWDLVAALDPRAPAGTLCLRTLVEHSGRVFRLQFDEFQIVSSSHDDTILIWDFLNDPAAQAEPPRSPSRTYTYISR

[2] = target: FBW7/Skp1 (Homo sapiens, UniProt Q969H0); experiment: Selectivity assay vs other E3s: Fbw7; format: biochemical; conditions: for inhibition at 100 µM: value in brackets, read-out: % Inhibition Fbw7 @ (100 μM); for inhibition at 10 µM: read-out: % Inhibition Fbw7 @ 10 μM
Procedure: (§1) βTrCP Ubiquitination Assay and Selectivity Assays
(§2) Master mixes were prepared in a 50 mM Herpes buffer at pH 7.5, in 75 mM NaCl and 1 mM DTT without Mg or ATP and peptides were added to a final concentration of 100 μM. Reactions were incubated at room temperature for 30 minutes and then Mg/ATP was added to the mix. Reactions were further incubated for an additional 60 minutes and then stopped by adding SDS gel loading buffer and boiled for 5 minutes. Reactions were run on SDS-PAGE (10%) and transferred to nitrocellulose membranes and probed with HRP-Streptavidin.
FBW7 selectivity assays were performed in the same manner except using FBW7/Skp1 as E3 component and cyclin E as the substrate. Blots were probed using anti-cyclin E antibody.
(§3) Candidate compounds were tested for inhibition of Fbw7 and Skp2 as described above.

[3] = target: β-TrCP1/Skp1 (Homo sapiens, UniProt Q9Y297); experiment: βTrCP ubiquitination assay (Ub assay); format: biochemical; conditions: for Ub Assay 10 μM: 10 μM compound; for Ub Assay 100 μM: 100 μM compound
Procedure: as §1
0.5 μM Peptide substrate (biotin)
as §2
Candidate compounds were tested in duplicate at both 10 and 100 μM against the E3 ligase cascades βTrCP(IκBα) and βTrCP(β-catenin). The E3 assays were carried out according to the component concentrations detailed in Table 9. In each case the E2 was HA,6His-UbcH3-(hu,FL), the E1 was 6His-UBE1-(hu,FL) and the ubiquitin (Sigma U6253) was biotinylated at a 5:1 ratio. Substrate phosphorylation was performed in the absence of compound; consequently any observed signal modulation should not reflect inhibition of the up-stream kinase reaction. All other steps (E1, E2 and substrate ubiquitination) were carried out in the presence of compound. The stopped reaction mix (10 μl) was added to an ECL plate loaded with anti c-Myc ( 1/500 Dilution, Millipore 05-724) and blocked with 5% BSA. Binding was allowed to proceed for 1 hour at RT before a wash step (3 40 μl PBST washes). Detection was achieved by binding SA-Ru TAG at 1 μg/ml (1 hour @ RT, 3 40 μl PBST washes) before reading on an MSD Sector Imager 6000.
Assays were performed as described above

[4] = target: Skp2 (Homo sapiens, UniProt Q13309); experiment: Selectivity assay vs other E3s: Skp2; format: biochemical; conditions: for inhibition at 100 µM: value in brackets, read-out: % Inhibition Skp2 @ (100 μM); for inhibition at 10 µM: read-out: % Inhibition Skp2 @ 10 μM
Procedure: as §1, §2, §3

[5] = target: βTrCP (Homo sapiens, UniProt Q9Y297); experiment: Fluorescence polarisation (FP) binding assay with fluorescein-tagged IκB peptide
Target sequence in this assay (P63208 whole entry partner, one chain of several): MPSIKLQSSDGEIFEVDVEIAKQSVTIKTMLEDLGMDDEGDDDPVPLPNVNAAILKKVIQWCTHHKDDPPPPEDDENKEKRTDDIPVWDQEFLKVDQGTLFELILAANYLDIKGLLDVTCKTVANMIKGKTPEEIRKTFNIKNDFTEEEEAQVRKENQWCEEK

[6] = target: βTrCP/Skp1 (Homo sapiens, UniProt Q9Y297); experiment: Surface plasmon resonance (SPR), Biacore T200; format: binding; conditions: apparent KD averaged over both surfaces
Procedure: Surface Plasmon Resonance (SPR)
Experiments were carried out using the Biacore T200 SPR detection system. This system exploits the phenomenon of surface plasmon resonance (SPR) to monitor interactions between molecules. The system involves the attachment of one interacting partner to a surface (an appropriate sensor chip) while the other interacting partner is passed over it in solution. The binding of molecules to the surface generates an SPR response (measured in response units (RU)) that is proportional to the mass and amount of the biomolecule (in this case βTrCP/Skp1) bound to the chip. The relative responses obtained are dependent on the concentration of the molecule binding. At RUmaximum, the attached protein's binding sites are saturated. Binding events can be followed in real time and a range of interaction characteristics can be determined including kinetics, specificity of interactions and the concentration of specific molecules in a sample.
As βTrCP was His tagged, an NTA sensor chip was used. This sensor chip has a dextran surface matrix with immobilized nitrilotriacetic acid (NTA) which provides a means of capturing polyHis-tagged proteins through Nickel chelation. It was hoped that addition of Ni^+ would orient the protein in a specific (and hopefully active) manner as it is covalently immobilised via amine coupling. Addition of EDC:NHS (N-ethyl-N′-(3-[…])-carbodiimide:N-hydroxysuccinimide) converts carboxyl groups on the dextran sensor chip surface to succinamide esters which readily form covalent bonds with primary amines. Each chip contains four flow cells (each a separate surface) which means that compounds/peptides can be passed over different forms of βTrCP and a reference surface simultaneously. If binding to βTrCP is occurring, responses should be the same (accounting for differences in density of surface etc) on each surface.
Two different βTrCP protein complexes were immobilised on to an NTA biacore sensor chip. One included the GSTSkp1 fusion (HisβTrCP/GSTSkp1) while the other was immobilised after GST Removal by Thrombin (HisβTrCP/Skp1). To ensure that the GST moiety is completely removed from Skp1, βTrCP/GSTSkp1 was incubated with thrombin ((10units/mg protein) for at least 16 hours at room temperature in 10mMHEPES 150mMNaCl pH7.4+2 mM CaCl2. Thrombin and GST were removed from βTrCP/Skp1 by buffer exchange through a 50 KDa MWCO vivaspin concentrator.
Protein Immobilisation Procedure for NTA Chip
Ni+ (500 μM NiCl) loaded on to surface at a flow rate of 5 μl/min for 60s. EDC/NHS (activates dextran carboxylates) loaded at a flow rate of 5 μl/min for 240s. Protein ([protein]=100 nM to 1 μM) loaded at a flow rate of 10 μl/min for 180s. Strip solution (350 μM EDTA/1M NaCl) added at flow rate of 10 μl/min for 30s (to chelate excess Ni+ and remove non-covalently bound protein e.g. protein oligomers). Quench solution (ethanolamine) at flow rate of 5 μl/min for 240s (to deactivate surface molecules on the chip that have not crosslinked protein). The immobilisation buffer used was 10 mM HEPES pH 7.4, 150 mM NaCl,
GST Capture Procedure (for Immobilisation Via GSTSkp1)
EDC:NHS was injected at 5 μl/min for 4 min to activate surface for amine coupling (this converts carboxyl groups on the surface of the chip to succinamide esters that react with primary amines)
Anti-GST (60 μg/ml). was loaded at 10 μl/min for 4 min resulting in an increase in response units of 6730 (Biacore manual states it should result in ˜7000)
Ethanolamine was injected at 5 μl/min for 5 min to deactivate remaining unreacted esters at surface (quenching).
Injection of a low concentration of purified GST (from kit) was injected for 3 mins at 5 μl/min before running a regeneration cycle with glycine pH2.0 that disrupts the antibody-GST interaction. […]

[7] = Table 11, with spread, read-out: FP IC50/μM
[8] = Tables 1, 3, 7, 8, 10 nM fluorescein-tagged IκB peptide, read-out: FP Assay IC50/μM

Sequence of βTrCP/Skp1 (P63208 whole entry partner, one chain of several): as above
Sequence of β-TrCP1/Skp1 (P63208 2-163 partner limits assumed, one chain of several): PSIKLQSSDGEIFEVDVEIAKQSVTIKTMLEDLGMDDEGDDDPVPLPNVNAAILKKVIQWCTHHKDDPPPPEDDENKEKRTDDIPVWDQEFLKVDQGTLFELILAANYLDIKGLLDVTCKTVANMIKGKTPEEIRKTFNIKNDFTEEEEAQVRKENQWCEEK
Sequence of FBW7/Skp1 (Q969H0 whole entry, species assumed): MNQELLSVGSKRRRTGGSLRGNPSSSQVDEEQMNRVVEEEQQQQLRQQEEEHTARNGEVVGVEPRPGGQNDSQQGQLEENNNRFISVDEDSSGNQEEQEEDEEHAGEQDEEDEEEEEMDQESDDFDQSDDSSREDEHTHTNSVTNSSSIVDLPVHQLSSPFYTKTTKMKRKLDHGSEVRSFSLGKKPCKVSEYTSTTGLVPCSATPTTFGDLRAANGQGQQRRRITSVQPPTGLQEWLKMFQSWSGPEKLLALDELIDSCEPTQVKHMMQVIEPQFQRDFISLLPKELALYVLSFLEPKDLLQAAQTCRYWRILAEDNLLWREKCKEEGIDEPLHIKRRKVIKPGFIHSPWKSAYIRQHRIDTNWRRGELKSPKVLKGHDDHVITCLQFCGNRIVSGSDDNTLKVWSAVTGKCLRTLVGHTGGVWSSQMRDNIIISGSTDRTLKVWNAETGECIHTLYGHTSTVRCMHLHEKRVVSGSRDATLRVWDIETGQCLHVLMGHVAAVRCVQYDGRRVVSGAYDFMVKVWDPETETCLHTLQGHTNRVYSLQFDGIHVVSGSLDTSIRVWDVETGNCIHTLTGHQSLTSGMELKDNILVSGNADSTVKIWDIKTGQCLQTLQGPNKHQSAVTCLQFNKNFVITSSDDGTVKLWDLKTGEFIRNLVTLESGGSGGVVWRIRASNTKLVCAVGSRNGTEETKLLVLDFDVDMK
Sequence of FBW7/Skp1 (P63208 whole entry partner, species assumed): as the sequence (P63208 whole entry partner, one chain of several) above
Sequence of FBW7/Skp1 (Q13616 whole entry partner, species assumed): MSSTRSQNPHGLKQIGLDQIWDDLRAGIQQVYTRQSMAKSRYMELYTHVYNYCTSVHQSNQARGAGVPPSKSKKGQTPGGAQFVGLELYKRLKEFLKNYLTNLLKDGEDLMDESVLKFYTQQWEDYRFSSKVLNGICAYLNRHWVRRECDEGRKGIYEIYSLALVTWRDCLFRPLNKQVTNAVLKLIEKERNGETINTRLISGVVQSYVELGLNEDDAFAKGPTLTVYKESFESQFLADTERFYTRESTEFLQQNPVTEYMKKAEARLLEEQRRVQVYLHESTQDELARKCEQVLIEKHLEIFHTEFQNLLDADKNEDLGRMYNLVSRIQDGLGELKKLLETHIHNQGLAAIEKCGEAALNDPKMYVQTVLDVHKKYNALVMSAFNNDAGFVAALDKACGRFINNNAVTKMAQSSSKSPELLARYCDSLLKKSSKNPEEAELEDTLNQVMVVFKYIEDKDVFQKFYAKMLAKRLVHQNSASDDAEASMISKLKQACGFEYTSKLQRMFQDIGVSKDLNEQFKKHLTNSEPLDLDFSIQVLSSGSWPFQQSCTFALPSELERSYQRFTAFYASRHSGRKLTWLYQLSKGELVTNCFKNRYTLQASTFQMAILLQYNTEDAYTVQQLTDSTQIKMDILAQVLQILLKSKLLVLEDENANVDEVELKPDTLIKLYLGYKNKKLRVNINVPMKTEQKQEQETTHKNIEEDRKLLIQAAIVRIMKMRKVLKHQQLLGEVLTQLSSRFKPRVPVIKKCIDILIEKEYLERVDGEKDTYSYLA
Sequence of FBW7/Skp1 (P62877 whole entry partner, species assumed): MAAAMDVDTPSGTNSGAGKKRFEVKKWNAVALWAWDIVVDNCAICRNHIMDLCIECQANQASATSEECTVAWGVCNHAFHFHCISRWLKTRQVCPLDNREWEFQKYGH
Sequence of Skp2 (Q13309 whole entry, species assumed): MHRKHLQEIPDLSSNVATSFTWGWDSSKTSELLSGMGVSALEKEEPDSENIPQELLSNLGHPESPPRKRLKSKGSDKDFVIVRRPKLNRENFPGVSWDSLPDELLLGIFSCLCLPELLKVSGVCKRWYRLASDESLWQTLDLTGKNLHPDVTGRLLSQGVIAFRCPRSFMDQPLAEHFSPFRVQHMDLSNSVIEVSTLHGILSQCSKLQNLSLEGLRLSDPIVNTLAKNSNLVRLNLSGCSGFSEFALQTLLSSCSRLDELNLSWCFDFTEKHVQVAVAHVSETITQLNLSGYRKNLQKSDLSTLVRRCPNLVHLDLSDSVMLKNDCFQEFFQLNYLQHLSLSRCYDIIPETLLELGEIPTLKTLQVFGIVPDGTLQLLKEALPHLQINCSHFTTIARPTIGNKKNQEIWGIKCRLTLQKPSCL
Sequence of Skp2 (P63208 whole entry partner, species assumed): as the sequence (P63208 whole entry partner, one chain of several) above
Sequence of Skp2 (Q13616 whole entry partner, species assumed): as the sequence (Q13616 whole entry partner, species assumed) above
Sequence of Skp2 (P62877 whole entry partner, species assumed): as the sequence (P62877 whole entry partner, species assumed) above

SMILES: NC(=O)[C@H](CCC(=O)O)NC(=O)[C@H](Cc1c[nH]cn1)NC(=O)[C@H](Cc1cccc(F)c1)NC(=O)CNC(=O)[C@H](CCC(=O)O)NC(=O)CCC(=O)O [UBP015, Suc-EGF(3F)HE-NH2] (Suc-EG[Phe(3-F)]HE-NH2)
- Biotin Pulldown Assay 10 μM [1]: reduces/
- Biotin Pulldown Assay 100 μM [1]: inhibits
- inhibition at 100 µM [2]: 83%
- inhibition at 10 µM [2]: 12%
- Ub Assay 10 μM [3]: reduces/
- Ub Assay 100 μM [3]: inhibits
- inhibition at 100 µM [4]: 18%
- inhibition at 10 µM [4]: 3%
- IC50 [5, 7]: 0.521 ± 0.059 µM
- IC50 [5, 8]: 0.521 µM
- Kd [6]: 0.4 ± 0.021 µM

SMILES: NC(=O)[C@H](CCC(=O)O)NC(=O)[C@H](Cc1ccc([N+](=O)[O-])cc1)NC(=O)[C@H](Cc1ccccc1F)NC(=O)CNC(=O)[C@H](CCC(=O)O)NC(=O)CCC(=O)O [UBP003, Suc-EGF(2F)F(4NO2)E-NH2] (Suc-EG[Phe(2-F)][Phe(4-NO2)]E-NH2)
- Biotin Pulldown Assay 10 μM [1]: no effect/
- Biotin Pulldown Assay 100 μM [1]: reduces
- inhibition at 100 µM [2]: 0%
- inhibition at 10 µM [2]: 0%
- Ub Assay 10 μM [3]: no effect/
- Ub Assay 100 μM [3]: inhibits
- inhibition at 100 µM [4]: 11%
- inhibition at 10 µM [4]: 8%
- IC50 [5, 7]: 4.91 ± 0.702 µM
- Kd [6]: 8 ± 0.26 µM

SMILES: NC(=O)[C@H](CCC(=O)O)NC(=O)[C@H](Cc1ccccc1)NC(=O)[C@H](Cc1ccc(O)cc1)NC(=O)CNC(=O)[C@H](CCC(=O)O)NC(=O)CCC(=O)O [UBP007, Suc-EGYFE-NH2] (Suc-EGYFE-NH2)
- Biotin Pulldown Assay 10 μM [1]: no effect/
- Biotin Pulldown Assay 100 μM [1]: inhibits
- inhibition at 100 µM [2]: 0%
- inhibition at 10 µM [2]: 0%
- Ub Assay 10 μM [3]: reduces/
- Ub Assay 100 μM [3]: inhibits
- inhibition at 100 µM [4]: 28%
- inhibition at 10 µM [4]: 11%
- IC50 [5, 7]: 1.04 ± 0.101 µM
- IC50 [5, 8]: 1 µM
- Kd [6]: 0.537 ± 0.117 µM

SMILES: NC(=O)[C@H](CCC(=O)O)NC(=O)[C@H](Cc1ccc([N+](=O)[O-])cc1)NC(=O)[C@H](Cc1cccc(F)c1)NC(=O)CNC(=O)[C@H](CCC(=O)O)NC(=O)/C=C\C(=O)O [UBP008, Mal-EGF(3F)F(4NO2)E-NH2] (Maleoyl-EG[Phe(3-F)][Phe(4-NO2)]E-NH2)
- Biotin Pulldown Assay 10 μM [1]: no effect/
- Biotin Pulldown Assay 100 μM [1]: inhibits
- inhibition at 100 µM [2]: 18%
- inhibition at 10 µM [2]: 0%
- Ub Assay 10 μM [3]: no effect/
- Ub Assay 100 μM [3]: inhibits
- inhibition at 100 µM [4]: 14%
- inhibition at 10 µM [4]: 0%
- IC50 [5, 7]: 2.17 ± 0.425 µM
- Kd [6]: 1.46 ± 0.035 µM
